Measured values taken from US20040028684A1, “Cancer diagnosis and assays for screening anti-cancer agents” (priority 2000, published 2004).

Tested on: RMP1
Experiment: Rapamycin sensitive signaling on human RMP1: immunoblot of RMP in insulin-induced HEK293 cells
Type: cell-based
Conditions: serum-deprived HEK293 cells, 50 nM insulin, after 1 h induction, maintained throughout 8 h, no rapamycin
Experimental: Human Embryonic kidney (HEK293) cells are grown in DMEM+10% FCS. Exponentially growing HEK 293 cells are deprived of serum overnight, and then induced with 50 nM insulin in the presence or absence of 20 nM rapamycin. Protein extracts were prepared from cells harvested at 0 h, 1 h, 2 h, 4 h and 8 h after insulin induction. The cell extracts were subjected to SDS-polyacrylamide gel electrophoresis and the resulting gels were analyzed by immuno-blotting using a rabbit polyclonal anti-human RMP antibody. Antibodies specific for RMP are easily prepared using standard laboratory practices. A secondary antibody specific for rabbit antibodies, labelled was used to visualize RMP on the immunoblot using routine procedures.
In the presence of insulin and amino acids (in the culture medium in this example), RMP is present as a slower migrating form, indicating a phosphorylated form. Under these conditions, the cells continue to synthesize […]. With the addition of rapamycin, RMP is present as a fast migrating form and blocks the synthesis of […]

## insulin
  slower migrating form of RMP: induced
